# Patent publication US20140315234A1, “METHOD TO GENERATE DOPAMINERGIC NEURONS FROM MOUSE AND HUMAN CELLS” (priority 2010, published 2014)
# Read-outs that look alike come from different tables or passages of the source.
# Columns and labels:
# K+ currents = assay: Pharmacological suppression of K+ currents in human iDAN cells; assay type: cell-based
# Method: (§1) Recordings were performed on reprogrammed mouse and human fibroblasts and primary mesencephalic DA neurons. […] Only cells without signs of detachment from the substrate were used for recordings. Cells were perfused continuously with HEPES-buffered saline (HBS) of the following composition (in mM): 140 NaCl, 5 KCl, 2 CaCl2, 2 MgCl2, 15 HEPES, and 25 glucose, pH 7.4. The patch pipette solution contained (in mM): 130 K-gluconate, 10 KCl, 0.5 CaCl2, 15 HEPES, 5 EGTA, 8 NaCl, 2 MgATP, 0.3 Na2GTP, and 10 glucose, pH adjusted to 7.2 with KOH. Action potentials were recorded in the on-cell and the current-clamp whole-cell configuration. A current was injected to have membrane potentials around −60 mV, and step currents from −50 pA to 40 pA were injected to elicit action potentials. Na^+ currents and composite K^+ currents were recorded in the voltage-clamp configuration by delivering voltage steps ranging from −100 mV to +20 mV in cells held at −60 mV. Delayed rectifier K+ currents were activated by 0.5 s voltage steps from −40 mV to +20 mV after a 0.5 s-long step to −40 mV.
# K+ channel = assay type: cell-based, mouse
# Na+ currents = assay type: cell-based, human
# [1] = system: Na+ voltage-gated channels; assay type: cell-based, mouse
# D2/D3 receptor = assay type: cell-based, mouse
# Method: as §1
compound,measurement,setting,value
"Nc1ccncc1 [4-AP, 4-aminopyridine]",effect on K+ currents and action potentials,K+ currents,Suppression
same,effect on outward K+ currents,"K+ channel; 4-AP 3 mM, TEA 10 mM, in the presence of TTX, n=4",inhibition of outward currents
"CC[N+](CC)(CC)CC [TEA, tetraethylammonium]",effect on outward K+ currents,K+ channel,inhibition of outward currents
"NC1=N[C@H](O)[C@H]2[C@H]3O[C@]4(O)O[C@@H]([C@@H](O)[C@@]2(N1)[C@@H]4O)[C@]3(O)CO [TTX, tetrodotoxin]",effect on Na+ currents and action potentials,Na+ currents,Suppression
same,block of the fast inward current,[1],complete block
CCCN1CCC[C@@H]2Cc3n[nH]cc3C[C@H]21 [quinpirole],effect on neuronal firing,D2/D3 receptor,drastically suppressed neuronal firing in 6 of 10 recorded cells
